Results reported in patent US12006278B1, “4,4′-naphthalene-1,5-diylbis(diazene-2,1-diyl)diphenol as an antioxidant compound” (KING FAISAL UNIVERSITY, priority 2023, dated 2024).

Assay: DPPH radical scavenging antioxidant test
Conditions: 517 nm; for Inhibition (radical scavenging inhibition): compound 3 μM in ethanol + 0.2 mL DPPH (0.75 mM), 30 min incubation in the dark
Method: The antioxidant properties of the 4,4′-naphthalene-1,5-diylbis(diazene-2,1-diyl)diphenol were studied by adding 0.2 mL DPPH (0.75 mM)) to compound 4,4′-naphthalene-1,5-diylbis(diazene-2,1-diyl)diphenol (III) (3 μM) in ethanol. After 30 min of incubation in the dark, the absorbance was read against a blank at 517 nm. Ascorbic acid (vitamin C) was used as standard antioxidants (positive control). A blank sample was prepared by 0.2 ml of DPPH in 3 ml ethanol. A negative control sample was run using ethanol instead of the sample. The radical scavenging inhibition was calculated using the following equation: […]

| SMILES | antioxidant potential compared to vitamin C (result in words) (DPPH in vitro test, vitamin C as positive control) | Inhibition (radical scavenging inhibition) |
| --- | --- | --- |
| Oc1ccc(/N=N\c2cccc3c(/N=N/c4ccc(O)cc4)cccc23)cc1 [Product III, 4,4′-naphthalene-1,5-diylbis(diazene-2,1-diyl)diphenol] | high potential as an antioxidant | 54% |
| O=C1O[C@H]([C@@H](O)CO)C(O)=C1O [vit c, Ascorbic acid, reference compound] | – | 74% |
